According to publication PMC8911971, “Detection of Bacterial α-L-Fucosidases with an Ortho-Quinone Methide-Based Probe and Mapping of the Probe-Protein Adducts” (Molecules, 2022):

Columns and labels:
Type in all cases: biochemical
BfFucH = target: T1, BfFucH (Bacteroides fragilis, UniProt Q5LAD6); test: block of AH062 probe labelling, blot chemiluminescence; details: 100 uM inhibitor preincubated, 350 uM AH062, PBS pH 7.4; competitive
T1 construct: gene BF9343_3156; codon-optimized gene in pET47b+, expressed in E. coli BL21(DE3), Ni-NTA and Superdex 200 purified; about 50 kDa
T1 sequence (Q5LAD6 21-434): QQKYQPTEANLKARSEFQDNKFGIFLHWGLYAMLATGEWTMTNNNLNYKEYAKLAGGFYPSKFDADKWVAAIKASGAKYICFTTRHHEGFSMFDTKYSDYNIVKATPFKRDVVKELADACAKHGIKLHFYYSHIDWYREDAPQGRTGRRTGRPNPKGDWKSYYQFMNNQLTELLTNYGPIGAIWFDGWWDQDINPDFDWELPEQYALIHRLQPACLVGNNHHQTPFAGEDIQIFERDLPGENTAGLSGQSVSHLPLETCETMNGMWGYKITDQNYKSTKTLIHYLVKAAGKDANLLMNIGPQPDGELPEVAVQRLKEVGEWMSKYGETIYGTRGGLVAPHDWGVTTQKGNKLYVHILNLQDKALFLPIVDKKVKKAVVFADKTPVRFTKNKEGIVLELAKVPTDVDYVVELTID

TmFuc = target: T2, TmFuc (Thermotoga maritima, UniProt Q9WYE2); test: pepsin digest LC-MS/MS of probe adducts; details: covalent after turnover to quinone methide; adducts at W80 or W105, outside the active site
T2 construct: gene TM_0306; recombinant, commercial (Megazyme)
T2 sequence (Q9WYE2 1-449): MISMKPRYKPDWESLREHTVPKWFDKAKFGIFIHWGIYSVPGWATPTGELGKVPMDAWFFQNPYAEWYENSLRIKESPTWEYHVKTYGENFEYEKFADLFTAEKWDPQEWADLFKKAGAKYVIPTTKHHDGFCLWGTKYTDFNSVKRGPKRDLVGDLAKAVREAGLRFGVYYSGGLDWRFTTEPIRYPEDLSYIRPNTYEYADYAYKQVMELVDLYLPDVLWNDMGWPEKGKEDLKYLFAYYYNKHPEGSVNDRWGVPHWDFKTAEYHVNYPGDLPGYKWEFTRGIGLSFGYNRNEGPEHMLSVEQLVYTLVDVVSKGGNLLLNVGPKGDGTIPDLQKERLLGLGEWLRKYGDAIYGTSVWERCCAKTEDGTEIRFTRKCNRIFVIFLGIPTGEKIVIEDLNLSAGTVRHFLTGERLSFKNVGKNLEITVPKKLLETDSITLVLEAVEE

AfcA = target: T3, AfcA (Bifidobacterium bifidum, UniProt Q6JV24); test: probe labelling, click biotinylation, blot chemiluminescence; details: 350 uM probe, PBS pH 7.4, 37 C or room temperature (Figure 1); covalent after turnover to quinone methide
T3 construct: catalytic GH95 fragment, residues 577-1474, C-terminal GGSGGSHHHHHHHH tag; pMAL-c4x-1-H(RBS)+ in E. coli BL21(DE3), Ni-NTA and Superdex 200 purified
T3 sequence (Q6JV24 entry or part of it): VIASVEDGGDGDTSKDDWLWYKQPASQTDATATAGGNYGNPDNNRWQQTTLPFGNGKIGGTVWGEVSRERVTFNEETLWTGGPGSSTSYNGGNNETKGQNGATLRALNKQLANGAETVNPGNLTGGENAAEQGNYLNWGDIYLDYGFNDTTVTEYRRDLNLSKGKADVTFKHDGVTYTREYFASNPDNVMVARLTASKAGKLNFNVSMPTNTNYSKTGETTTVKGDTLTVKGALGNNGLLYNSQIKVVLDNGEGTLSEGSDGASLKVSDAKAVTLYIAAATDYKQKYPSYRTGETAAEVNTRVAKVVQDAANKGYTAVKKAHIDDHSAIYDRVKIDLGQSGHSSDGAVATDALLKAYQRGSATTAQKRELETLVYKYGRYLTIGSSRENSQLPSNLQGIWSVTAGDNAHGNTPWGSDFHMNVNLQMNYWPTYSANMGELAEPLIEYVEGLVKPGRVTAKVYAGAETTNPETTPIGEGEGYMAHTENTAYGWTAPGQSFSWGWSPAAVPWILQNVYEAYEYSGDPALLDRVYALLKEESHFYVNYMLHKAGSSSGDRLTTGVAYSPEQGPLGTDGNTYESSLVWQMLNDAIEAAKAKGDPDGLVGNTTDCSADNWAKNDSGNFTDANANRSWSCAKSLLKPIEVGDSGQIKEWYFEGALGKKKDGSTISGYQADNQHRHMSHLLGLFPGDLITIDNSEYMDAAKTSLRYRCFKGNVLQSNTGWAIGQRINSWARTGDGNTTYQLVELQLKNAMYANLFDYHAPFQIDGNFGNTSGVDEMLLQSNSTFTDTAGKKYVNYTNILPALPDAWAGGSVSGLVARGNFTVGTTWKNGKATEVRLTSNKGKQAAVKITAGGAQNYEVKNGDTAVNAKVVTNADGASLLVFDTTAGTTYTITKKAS

Structure (SMILES)	block of AH062 probe labelling, blot chemiluminescence (BfFucH)	pepsin digest LC-MS/MS of probe adducts (TmFuc)	probe labelling, click biotinylation, blot chemiluminescence (AfcA)
C[C@@H]1NC[C@@H](O)[C@H](O)[C@@H]1O [L-fuconojirimycin]	distinguishing the active from the inhibited enzyme (prepared by preincubation with the competitive inhibitor L-fuconojirimycin		
C[C@@H]1O[C@@H](Oc2ccc(NC(=O)CCOCCOCCOCCN=[N+]=[N-])cc2CF)[C@@H](O)[C@H](O)[C@@H]1O [compound 12, 3-(2-(2-(2-azidoethoxy)ethoxy)ethoxy)-N-(3-(fluoromethyl)-4-(((2S,3S,4R,5S,6S)-3,4,5-trihydroxy-6-methyltetrahydro-2H-pyran-2-yl)oxy)phenyl)propanamide]		the quinone methide generated from AH062 had labeled either tryptophan W80 or W105	the probe detected the enzyme in a concentration-dependent manner
